The values below come from ChEMBL document CHEMBL1142962, “Antiproliferative prenylated stilbenes and flavonoids from Macaranga alnifolia from the Madagascar rainforest” (J Nat Prod, 2007).

The assay relates to A2780 (human ovarian cancer). Put plainly: Antiproliferative activity against drug-sensitive human A2780 cells.

In turn, `COc1cc(/C=C/c2cc(O)c(CC=C(C)C)c(O)c2)cc2c1O[C@]1(C)CC[C@@H](O)C(C)(C)[C@H]1C2` [SCHWEINFURTHIN F] displayed a concentration for half-maximal inhibition (IC50) of 5 µM.
